13 molecules from US20240366770A1, “DEGRADATION OF BRUTON'S TYROSINE KINASE (BTK) BY CONJUGATION OF BTK INHIBITORS WITH E3 LIGASE LIGAND AND METHODS OF USE” (BeiGene Switzerland GmbH, priority 2021, published 2024) can be followed below.

One experiment deals with T1, BTK (Homo sapiens, UniProt Q06187).
T1 construct: High control=Cell group with added DMSO and without compound, indicating microplate readings without BTK degradation; endogenous in cells; host or cells: TMD-8
Put plainly: BTK degradation in TMD-8 cells (HTRF assay). The following applies: 6 h treatment, IC50 (DC50) of BTK degradation. In kind it is cell-based. The method, then: TMD-8 cells were treated with compounds diluted in 0.2% DMSO, dilution was done according to the following protocol: (1) making 500× stock solution in DMSO from 1 mM by 6-fold dilution, total 8 doses were included; (2) making 2× solution in cell culture medium by transferring 0.5 μl 500× stock solution into 125 μl medium; (3) adding 15 μl of 2× solution to cells for incubation of 6 h.
After 6 h treatment, 10 μl 4× lysis buffer was added to each well; the plate was sealed and incubated for 30 min at room temperature on a plate shaker; Once the cells was lysed, 16 μL of cell lysate were transferred to a PE 384-well HTRF detection plate; 4 μL of pre-mixed HTRF antibodies were added to each well; the plate was covered with a plate sealer, and then spinned at 1000 rpm for 1 min, then incubated overnight at room temperature; the results were read on BMG PheraStar with HTRF protocol (337 nm-665 nm-620 nm).
The IC50 (DC50) value of a compound can be obtained by fitting the following equation
(§1) wherein, X and Y are known values, and IC50, Hillslope, Top and Bottom are the parameters obtained by fitting with software. Y is the inhibition percentage (calculated from the equation), X is the concentration of the compound; IC50 is the concentration of the compound when the 50% inhibition is reached. The smaller the IC50 value is, the stronger the inhibitory ability of the compound is. Vice versa, the higher the IC50 value is, the weaker the ability the inhibitory ability of the compound is; Hillslope represents the slope of the fitted curve, generally around 1 *; Bottom represents the minimum value of the curve obtained by data fitting, which is generally 0%±20%; Top represents the maximum value of the curve obtained by data fitting, which is generally 100%±20%. The experimental data were fitted by calculating and analyzing with Dotmatics data analysis software.
(TR-FRET usually uses a lanthanide donor and a delayed reading to cut background.)

For the next experiment, the system named is HEK-293 cells. Put plainly: HEK-293 cytotoxicity detection (CellTiter-Glo). The experiment is classed as cell-based. The conditions noted are these: Homo sapiens; HEK-293 cells, 72 h incubation, CellTiter-Glo luminescence, IC50 of cell proliferation inhibition; read-out: HEK293. How it is done: HEK-293 cells were treated with compounds diluted in 0.2% DMSO, dilution was done according to the following protocol: (1) making 500× stock solution in DMSO from 5 mM by 4-fold dilution, total 8 doses were included; (2) making 2× solution in cell culture medium by transferring 0.5 ul 500× stock solution into 125 μl medium; (3) adding 50 μl of 2× solution to cells for incubation of 72 h.
25 μl of the CellTiter-Glo®Reagent [(Promega) -Cat No. G7572] was added to each well in the 96-well plate. The contents were mixed for 2 minutes on an orbital shaker to induce cell lysis. The plate was then allowed to incubate at room temperature for 10 minutes to stabilize luminescent signal. Luminescence was recorded on BMG PheraStar with luminescence protocol.
The IC50 value of a compound can be obtained by fitting the following equation
as §1, with “Wherein,” for “wherein,”
(In general: ATP-based viability assays read luminescence as a measure of living cells.)

T1 sequence (Q06187 whole entry): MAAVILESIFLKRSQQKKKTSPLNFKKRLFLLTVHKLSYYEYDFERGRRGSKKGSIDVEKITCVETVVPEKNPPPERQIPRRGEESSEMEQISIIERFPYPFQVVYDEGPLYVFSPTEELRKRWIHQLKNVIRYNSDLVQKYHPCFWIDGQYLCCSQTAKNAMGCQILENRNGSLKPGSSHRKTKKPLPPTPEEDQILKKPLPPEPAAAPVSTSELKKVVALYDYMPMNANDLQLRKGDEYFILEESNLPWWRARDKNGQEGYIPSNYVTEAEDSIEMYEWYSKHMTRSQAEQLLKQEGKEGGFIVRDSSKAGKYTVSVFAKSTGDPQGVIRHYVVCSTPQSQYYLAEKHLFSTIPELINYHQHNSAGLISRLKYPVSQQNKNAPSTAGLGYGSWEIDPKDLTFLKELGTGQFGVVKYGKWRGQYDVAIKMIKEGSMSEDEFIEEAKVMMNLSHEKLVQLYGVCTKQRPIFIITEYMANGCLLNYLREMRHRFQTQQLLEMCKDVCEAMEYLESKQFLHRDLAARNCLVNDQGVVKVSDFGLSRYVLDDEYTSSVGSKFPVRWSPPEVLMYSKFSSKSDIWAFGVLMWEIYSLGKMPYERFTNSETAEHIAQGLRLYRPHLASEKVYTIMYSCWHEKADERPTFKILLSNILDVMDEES

The molecule `Cc1cc(-c2ncnc3[nH]c4cc([C@@H]5CCN(CC6CCN(c7ccc(N8CCC(=O)NC8=O)cc7)CC6)C5)ccc4c23)ccc1[C@@H](C)NC(=O)c1nc(C(C)(C)C)no1` [Example 13, 3-(tert-butyl)-N—((R)-1-(4-(7-((S)-1-((1-(4-(2,4-dioxotetrahydropyrimidin-1(2H)-yl)phenyl)piperidin-4-yl)methyl)pyrrolidin-3-yl)-9H-pyrimido[4,5-b]indol-4-yl)-2-methylphenyl)ethyl)-1,2,4-oxadiazole-5-carboxamide] yielded a DC50 at BTK of 1.05 nM. Also, in the experiment on HEK-293 cells, the IC50 came out at 3260 nM.

On BTK, `Cc1cc(-c2ncnc3[nH]c4cc([C@H]5CCN(CC6CCN(c7ccc(N8CCC(=O)NC8=O)cc7)CC6)C5)ccc4c23)ccc1[C@@H](C)NC(=O)c1nc(C(C)(C)C)no1` [Example 14, 3-(tert-butyl)-N—((R)-1-(4-(7-((R)-1-((1-(4-(2,4-dioxotetrahydropyrimidin-1(2H)-yl)phenyl)piperidin-4-yl)methyl)pyrrolidin-3-yl)-9H-pyrimido[4,5-b]indol-4-yl)-2-methylphenyl)ethyl)-1,2,4-oxadiazole-5-carboxamide] gave a DC50 of 0.495 nM. In addition, the IC50 in the experiment with HEK-293 cells stood at 3340 nM.

Consider `Cc1cc(-c2ncnc3[nH]c4cc(N5CCN(C6CC(c7ccc(C8CCC(=O)NC8=O)cc7)C6)CC5)ccc4c23)ccc1[C@@H](C)NC(=O)c1nc(C(C)(C)C)no1` (stereo partly drawn) [Example 15, 3-(tert-butyl)-N-((1R)-1-(4-(7-(4-(3-(4-(2,6-dioxopiperidin-3-yl)phenyl)cyclobutyl)piperazin-1-yl)-9H-pyrimido[4,5-b]indol-4-yl)-2-methylphenyl)ethyl)-1,2,4-oxadiazole-5-carboxamide], for which half-maximal degradation at BTK (DC50) was put at 0.616 nM. Moreover, the IC50 in the experiment with HEK-293 cells is above 10000 nM.

`Cc1cc(-c2ncnc3[nH]c4cc(N5CCN(CCc6ccc(C7CCC(=O)NC7=O)c(C)n6)CC5)ccc4c23)ccc1[C@@H](C)NC(=O)c1nc(C(C)(C)C)no1` (stereo partly drawn) [Example 16, 3-(tert-butyl)-N-((1R)-1-(4-(7-(4-(2-(5-(2,6-dioxopiperidin-3-yl)-6-methylpyridin-2-yl)ethyl)piperazin-1-yl)-9H-pyrimido[4,5-b]indol-4-yl)-2-methylphenyl)ethyl)-1,2,4-oxadiazole-5-carboxamide] registered a DC50 on BTK of 0.347 nM. The IC50 in the experiment on HEK-293 cells is above 10000 nM.

In turn, `Cc1cc(-c2ncnc3[nH]c4cc(N5CCN(CCc6ccc(N7CCC(=O)NC7=O)c(C)c6)CC5)ccc4c23)ccc1[C@@H](C)NC(=O)c1nc(C(C)(C)C)no1` [Example 17, (R)-3-(tert-butyl)-N-(1-(4-(7-(4-(4-(2,4-dioxotetrahydropyrimidin-1(2H)-yl)-3-methylphenethyl)piperazin-1-yl)-9H-pyrimido[4,5-b]indol-4-yl)-2-methylphenyl)ethyl)-1,2,4-oxadiazole-5-carboxamide] returned a DC50 at BTK of 0.341 nM. Further, in the experiment with HEK-293 cells, the IC50 is above 10000 nM.

Consider `Cc1cc(CCN2CCN(c3ccc4c(c3)[nH]c3ncnc(-c5ccc([C@@H](C)NC(=O)c6nc(C(C)(C)C)no6)c(C)c5)c34)CC2)ccc1C1CCC(=O)NC1=O` (stereo partly drawn) [Example 18, 3-(tert-butyl)-N-((1R)-1-(4-(7-(4-(4-(2,6-dioxopiperidin-3-yl)-3-methylphenethyl)piperazin-1-yl)-9H-pyrimido[4,5-b]indol-4-yl)-2-methylphenyl)ethyl)-1,2,4-oxadiazole-5-carboxamide], for which it took 0.607 nM to reach half-maximal degradation on BTK (DC50). Moreover, the IC50 in the experiment with HEK-293 cells was above 10000 nM.

On to `Cc1cc(-c2ncnc3[nH]c4cc(N5CCN(CCc6ccc(N7CCC(=O)NC7=O)cn6)CC5)ccc4c23)ccc1[C@@H](C)NC(=O)c1nc(C(C)(C)C)no1` [Example 19, (R)-3-(tert-butyl)-N-(1-(4-(7-(4-(2-(5-(2,4-dioxotetrahydropyrimidin-1(2H)-yl)pyridin-2-yl)ethyl)piperazin-1-yl)-9H-pyrimido[4,5-b]indol-4-yl)-2-methylphenyl)ethyl)-1,2,4-oxadiazole-5-carboxamide], for which, at BTK, the DC50 stood at 0.564 nM. The IC50 in the experiment with HEK-293 cells turned out to be 5650 nM.

At BTK, `Cc1cc(-c2ncnc3[nH]c4cc(C5CCN(C6CC(c7ccc([C@H]8CCC(=O)NC8=O)cc7)C6)C5)ccc4c23)ccc1[C@@H](C)NC(=O)c1nc(C(C)(C)C)no1` (stereo partly drawn) [Example 20, 3-(tert-butyl)-N-((1R)-1-(4-(7-(1-(3-(4-((R)-2,6-dioxopiperidin-3-yl)phenyl)cyclobutyl)pyrrolidin-3-yl)-9H-pyrimido[4,5-b]indol-4-yl)-2-methylphenyl)ethyl)-1,2,4-oxadiazole-5-carboxamide] returned a DC50 of 1.3 nM. Besides, the IC50 in the experiment on HEK-293 cells was determined as 3520 nM.

As to `Cc1cc(-c2ncnc3[nH]c4cc(C5CCN(C6CC(c7ccc([C@@H]8CCC(=O)NC8=O)cc7)C6)C5)ccc4c23)ccc1[C@@H](C)NC(=O)c1nc(C(C)(C)C)no1` (stereo partly drawn) [Example 21, 3-(tert-butyl)-N-((1R)-1-(4-(7-(1-(3-(4-((S)-2,6-dioxopiperidin-3-yl)phenyl)cyclobutyl)pyrrolidin-3-yl)-9H-pyrimido[4,5-b]indol-4-yl)-2-methylphenyl)ethyl)-1,2,4-oxadiazole-5-carboxamide], it took 0.609 nM to reach half-maximal degradation at BTK (DC50). Besides, the IC50 in the experiment on HEK-293 cells came to 3600 nM.

`Cc1cc(-c2ncnc3[nH]c4cc(N5CCN(CC6CCN(c7ccc(N8CCC(=O)NC8=O)c(C)c7)CC6)CC5)ccc4c23)ccc1[C@@H](C)NC(=O)c1noc(C(C)(C)C)n1` [Example 22, (R)-5-(tert-butyl)-N-(1-(4-(7-(4-((1-(4-(2,4-dioxotetrahydropyrimidin-1(2H)-yl)-3-methylphenyl)piperidin-4-yl)methyl)piperazin-1-yl)-9H-pyrimido[4,5-b]indol-4-yl)-2-methylphenyl)ethyl)-1,2,4-oxadiazole-3-carboxamide]: on BTK, half-maximal degradation (DC50) was put at 0.211 nM. Besides, the IC50 in the experiment with HEK-293 cells was above 10000 nM.

The molecule `Cc1cc(-c2ncnc3[nH]c4cc(N5CCN(CC6CCN(c7ccc(N8CCC(=O)NC8=O)cc7)CC6)CC5)ccc4c23)c(F)cc1[C@@H](C)NC(=O)c1nc(C(C)(C)C)no1` [Example 23, (R)-3-(tert-butyl)-N-(1-(4-(7-(4-((1-(4-(2,4-dioxotetrahydropyrimidin-1(2H)-yl)phenyl)piperidin-4-yl)methyl)piperazin-1-yl)-9H-pyrimido[4,5-b]indol-4-yl)-5-fluoro-2-methylphenyl)ethyl)-1,2,4-oxadiazole-5-carboxamide] showed a DC50 at BTK of 0.608 nM. Besides, the IC50 in the experiment with HEK-293 cells was 2900 nM.

Turning to `Cc1cc(-c2ncnc3[nH]c4cc(N5CCN(CC6CCN(c7ccc(N8CCC(=O)NC8=O)c(C)c7)CC6)CC5)ccc4c23)c(F)cc1[C@@H](C)NC(=O)c1noc(C(C)(C)C)n1` [Example 24, (R)-5-(tert-butyl)-N-(1-(4-(7-(4-((1-(4-(2,4-dioxotetrahydropyrimidin-1(2H)-yl)-3-methylphenyl)piperidin-4-yl)methyl)piperazin-1-yl)-9H-pyrimido[4,5-b]indol-4-yl)-5-fluoro-2-methylphenyl)ethyl)-1,2,4-oxadiazole-3-carboxamide], the DC50 at BTK is 0.47 nM. Further, the IC50 in the experiment with HEK-293 cells was above 10000 nM.

Take `Cc1cc(-c2ncnc3[nH]c4cc(N5CCN(C6CC(c7ccc([C@@H]8CCC(=O)NC8=O)cc7)C6)CC5)ccc4c23)c(F)cc1[C@@H](C)NC(=O)c1nc(C(C)(C)C)no1` (stereo partly drawn) [Example 25, 3-(tert-butyl)-N—((R)-1-(4-(7-(4-(3-(4-((S)-2,6-dioxopiperidin-3-yl)phenyl)cyclobutyl)piperazin-1-yl)-9H-pyrimido[4,5-b]indol-4-yl)-5-fluoro-2-methylphenyl)ethyl)-1,2,4-oxadiazole-5-carboxamide]: it took 0.872 nM to reach half-maximal degradation at BTK (DC50). Moreover, the IC50 in the experiment with HEK-293 cells is above 10000 nM.

In general, DC50 refers to the midpoint of the concentration-degradation curve.
